The source of these data is ChEMBL document CHEMBL1250519, “Design, synthesis, and biological evaluation of halogenated N-(2-(4-oxo-1-phenyl-1,3,8-triazaspiro[4.5]decan-8-yl)ethyl)benzamides: discovery of an isoform-selective small molecule phospholipase D2 inhibitor” (J Med Chem, 2010).

The structures appear in SMILES notation. Calls of active or inactive are those of the source. The rule behind the calls is not given here.

For assay [1], the species on record is Homo sapiens. The assay can be described thus: Selectivity ratio of IC50 for human PLD1 to IC50 for human GST-tagged PLD2A.
Assay [2] addresses Phospholipase D2 (Homo sapiens, UniProt O14939).
Description: Inhibition of human GST-tagged PLD2A in human HEK293 cells
In assay [3] the target is T1, Phospholipase D1 (Homo sapiens, UniProt Q13393).
T1 sequence (Q13393 whole entry): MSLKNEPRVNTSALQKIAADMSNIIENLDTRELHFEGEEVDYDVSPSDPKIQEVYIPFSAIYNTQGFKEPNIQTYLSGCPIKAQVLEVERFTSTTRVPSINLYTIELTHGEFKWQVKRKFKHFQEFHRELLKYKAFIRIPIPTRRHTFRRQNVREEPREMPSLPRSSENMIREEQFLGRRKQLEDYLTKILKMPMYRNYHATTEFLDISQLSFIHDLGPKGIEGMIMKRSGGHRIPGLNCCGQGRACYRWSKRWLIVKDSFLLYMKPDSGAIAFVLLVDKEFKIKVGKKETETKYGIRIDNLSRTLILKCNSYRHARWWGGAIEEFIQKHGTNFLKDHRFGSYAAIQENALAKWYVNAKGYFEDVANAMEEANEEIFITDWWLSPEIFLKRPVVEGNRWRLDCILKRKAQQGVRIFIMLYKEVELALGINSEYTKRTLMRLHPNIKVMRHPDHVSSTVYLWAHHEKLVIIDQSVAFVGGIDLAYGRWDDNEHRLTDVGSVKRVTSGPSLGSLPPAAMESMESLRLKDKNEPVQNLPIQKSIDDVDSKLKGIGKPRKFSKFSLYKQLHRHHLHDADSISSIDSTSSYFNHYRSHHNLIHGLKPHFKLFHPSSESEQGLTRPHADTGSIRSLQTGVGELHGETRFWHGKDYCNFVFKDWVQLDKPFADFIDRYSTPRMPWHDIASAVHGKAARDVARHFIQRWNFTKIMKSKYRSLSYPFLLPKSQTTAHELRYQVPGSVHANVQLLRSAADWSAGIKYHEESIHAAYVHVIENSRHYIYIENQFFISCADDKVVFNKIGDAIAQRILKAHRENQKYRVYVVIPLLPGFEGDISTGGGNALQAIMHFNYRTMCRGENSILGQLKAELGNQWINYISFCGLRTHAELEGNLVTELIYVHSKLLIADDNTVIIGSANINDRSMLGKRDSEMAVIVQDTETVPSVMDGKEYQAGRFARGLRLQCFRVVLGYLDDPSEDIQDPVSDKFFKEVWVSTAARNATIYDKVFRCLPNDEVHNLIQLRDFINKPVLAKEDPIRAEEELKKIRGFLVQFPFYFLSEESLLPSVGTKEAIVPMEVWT
Description: Inhibition of PLD1 in human calu1 cells

Assay [4] concerns the target T2, Phospholipase D1 (Homo sapiens) (UniProt Q13393).
T2 sequence (whole entry): T1 sequence (Q13393 whole entry)
Format: cell-based. The following applies: MDA-MB-231, 10 uM.

Sequence of Phospholipase D2 (O14939 whole entry): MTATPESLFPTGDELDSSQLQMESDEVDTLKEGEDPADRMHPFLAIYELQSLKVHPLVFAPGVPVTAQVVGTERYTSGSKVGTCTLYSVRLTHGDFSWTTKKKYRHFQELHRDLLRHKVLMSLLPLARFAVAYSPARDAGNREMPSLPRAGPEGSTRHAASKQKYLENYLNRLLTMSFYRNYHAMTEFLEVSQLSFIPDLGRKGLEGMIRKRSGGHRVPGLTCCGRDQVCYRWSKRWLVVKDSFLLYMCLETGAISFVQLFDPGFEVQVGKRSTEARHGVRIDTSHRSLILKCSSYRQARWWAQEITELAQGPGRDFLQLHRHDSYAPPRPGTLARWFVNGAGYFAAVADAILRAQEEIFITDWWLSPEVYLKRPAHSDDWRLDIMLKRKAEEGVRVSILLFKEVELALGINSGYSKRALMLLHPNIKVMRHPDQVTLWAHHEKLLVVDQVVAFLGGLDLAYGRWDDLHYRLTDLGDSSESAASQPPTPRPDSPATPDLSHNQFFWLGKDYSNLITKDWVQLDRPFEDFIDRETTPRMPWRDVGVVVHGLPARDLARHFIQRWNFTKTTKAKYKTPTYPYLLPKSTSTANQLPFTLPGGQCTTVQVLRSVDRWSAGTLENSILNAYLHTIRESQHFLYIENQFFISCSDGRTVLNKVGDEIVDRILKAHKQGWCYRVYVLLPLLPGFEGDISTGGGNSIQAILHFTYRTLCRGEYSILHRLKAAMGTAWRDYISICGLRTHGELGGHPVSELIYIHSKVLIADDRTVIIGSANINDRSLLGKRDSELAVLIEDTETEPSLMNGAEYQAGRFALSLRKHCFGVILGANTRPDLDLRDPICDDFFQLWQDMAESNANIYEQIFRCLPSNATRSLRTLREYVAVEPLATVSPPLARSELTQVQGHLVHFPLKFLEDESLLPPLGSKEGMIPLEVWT

For the molecule `O=C(NCCN1CCC2(CC1)C(=O)NCN2c1ccc(F)cc1)c1cc2cc(F)ccc2[nH]1`, in assay [1], the Selectivity ratio came out at 9. Moreover, the IC50 in assay [2] was determined as 30 nM; in assay [3], 290 nM.
The corresponding values for `O=C(NCCN1CCC2(CC1)C(=O)NCN2c1ccc(Br)cc1)c1cnc2ccccc2c1` are 8, 360 nM and 2700 nM.
The corresponding values for `O=C(NCCN1CCC2(CC1)C(=O)NCN2c1ccc(F)c(F)c1)c1cnc2ccccc2c1` are 30, 70 nM and 2060 nM.
On to `O=C(NCCN1CCC2(CC1)C(=O)NCN2c1cccc(Cl)c1)c1cc2cc(F)ccc2[nH]1`, for which, in assay [1], the Selectivity ratio came to 3.4. Besides, the IC50 in assay [2] is 73 nM; in assay [3], 250 nM.
The corresponding values for `O=C(NCCN1CCC2(CC1)C(=O)NCN2c1ccc(Cl)cc1)c1ccc2ccccc2c1` are 3.5, 655 nM and 2270 nM.
On to `C[C@@H](CN1CCC(n2c(=O)[nH]c3cc(Br)ccc32)CC1)NC(=O)[C@H]1C[C@@H]1c1ccccc1`, for which, in assay [4], the inhibition entry is “Active”.
As for `O=C(NCCN1CCC2(CC1)C(=O)NCN2c1cccc(F)c1)c1cc2cc(F)ccc2[nH]1`, the Selectivity ratio in assay [1] stood at 8. For the same molecule, the IC50 is 25 nM in assay [2] and 210 nM in assay [3].
The corresponding values for `O=C(NCCN1CCC2(CC1)C(=O)NCN2c1ccc(Br)cc1)c1ccc(F)cc1` are 1, 8000 nM and 10000 nM.
For `O=C(NCCN1CCC2(CC1)C(=O)NCN2c1cccc(Cl)c1)c1cnc2ccccc2c1`, the Selectivity ratio in assay [1] came out at 5. In addition, the IC50 came out at 165 nM in assay [2] and 870 nM in assay [3].
The corresponding values for `O=C(NCCN1CCC2(CC1)C(=O)NCN2c1ccc(Br)cc1)c1ccc2ccccc2c1` are 17, 350 nM and 5900 nM.
The corresponding values for `O=C(NCCN1CCC2(CC1)C(=O)NCN2c1ccc(Cl)cc1)c1cc2cc(F)ccc2[nH]1` are 7, 50 nM and 335 nM.
Consider `O=C(NCCN1CCC2(CC1)C(=O)NCN2c1ccc(Cl)cc1)c1cnc2ccccc2c1`, for which the Selectivity ratio in assay [1] was found to be 17. Further, the concentration for half-maximal inhibition (IC50) worked out at 200 nM in assay [2] and 3500 nM in assay [3].
For `C[C@@H](CN1CCC2(CC1)C(=O)NCN2c1cccc(F)c1)NC(=O)c1ccc2ccccc2c1`, the concentration for half-maximal inhibition (IC50) in assay [2] amounted to 60 nM; in assay [3], 10 nM.
For the molecule `O=C(NCCN1CCC2(CC1)C(=O)NCN2c1cccc(F)c1)c1cnc2ccccc2c1`, in assay [1], the Selectivity ratio is 40. The 50% inhibitory concentration (IC50) in assay [2] turned out to be 63 nM; in assay [3], 2500 nM.
With `O=C(NCCN1CCC2(CC1)C(=O)NCN2c1ccc(F)cc1)c1ccc(F)cc1`, the Selectivity ratio in assay [1] turned out to be 23. The IC50 was determined as 610 nM in assay [2] and 14000 nM in assay [3].
On to `O=C(NCCN1CCC2(CC1)C(=O)NCN2c1ccc(Cl)cc1)c1ccc(F)cc1`, for which the Selectivity ratio in assay [1] is 1. Moreover, the IC50 was 5670 nM in assay [2] and 5590 nM in assay [3].
The corresponding values for `O=C(NCCN1CCC2(CC1)C(=O)NCN2c1cccc(Cl)c1)c1ccc(F)cc1` are 50, 70 nM and 3470 nM.
Regarding `O=C(NCCN1CCC2(CC1)C(=O)NCN2c1cccc(F)c1)c1ccc(F)cc1`, the IC50 in assay [2] was 6700 nM.
In the case of `O=C(NCCN1CCC2(CC1)C(=O)NCN2c1ccc(F)cc1)c1cnc2ccccc2c1`, the Selectivity ratio in assay [1] was 50. In addition, the IC50 came out at 40 nM in assay [2] and 2000 nM in assay [3].
Consider `O=C(NCCN1CCC2(CC1)C(=O)NCN2c1ccc(F)c(F)c1)c1ccc(F)cc1`, for which the Selectivity ratio in assay [1] worked out at 9. Further, the IC50 in assay [2] was determined as 660 nM; in assay [3], 5780 nM.
The corresponding values for `O=C(NCCN1CCC2(CC1)C(=O)NCN2c1ccc(F)c(F)c1)c1cc2cc(F)ccc2[nH]1` are 4, 100 nM and 390 nM.
The corresponding values for `O=C(NCCN1CCC2(CC1)C(=O)NCN2c1ccc(F)cc1)c1ccc2ccccc2c1` are 21, 80 nM and 1700 nM.
Consider `O=C(NCCN1CCC2(CC1)C(=O)NCN2c1cccc(Cl)c1)c1ccc2ccccc2c1`, for which, in assay [1], the Selectivity ratio was 4. Besides, the values for the IC50 in assay [2] and in assay [3] were 290 nM and 1200 nM, respectively.
The corresponding values for `O=C(NCCN1CCC2(CC1)C(=O)NCN2c1ccc(Br)cc1)c1cc2cc(F)ccc2[nH]1` are 27, 100 nM and 2660 nM.
